Measurements reported in PubChem BioAssay (NCI).
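Cells were grown in 96-well plates and exposed to each compound for 48 hours at five concentrations; endpoints were interpolated linearly between bracketing concentrations, or set to the highest concentration if not reached. The concentration for 50% growth inhibition is given as GI50. The concentration for full growth arrest is given as TGI.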

Legend:
Experiment in all cases: growth of human tumour cells (NCI), 48 h
SK-MEL-2 melanoma = test system: SK-MEL-2 melanoma
OVCAR-8 ovarian = test system: OVCAR-8 ovarian
UACC-62 melanoma = test system: UACC-62 melanoma
HL-60(TB) leukemia = test system: HL-60(TB) leukemia
HS 578T breast = test system: HS 578T breast
CCRF-CEM leukemia = test system: CCRF-CEM leukemia
UO-31 renal = test system: UO-31 renal
NCI-H23 lung = test system: NCI-H23 lung
PC-3 prostate = test system: PC-3 prostate
A498 renal = test system: A498 renal
HCT-15 colon = test system: HCT-15 colon
U251 CNS = test system: U251 CNS
DU-145 prostate = test system: DU-145 prostate
SF-539 CNS = test system: SF-539 CNS
MOLT-4 leukemia = test system: MOLT-4 leukemia
M14 melanoma = test system: M14 melanoma
RXF 393 renal = test system: RXF 393 renal
T-47D breast = test system: T-47D breast
SW-620 colon = test system: SW-620 colon
UACC-257 melanoma = test system: UACC-257 melanoma
MDA-MB-435 = test system: MDA-MB-435
SNB-75 CNS = test system: SNB-75 CNS
ACHN renal = test system: ACHN renal
SNB-19 CNS = test system: SNB-19 CNS
OVCAR-5 ovarian = test system: OVCAR-5 ovarian
COLO 205 colon = test system: COLO 205 colon
LOX IMVI melanoma = test system: LOX IMVI melanoma
SK-OV-3 ovarian = test system: SK-OV-3 ovarian
SR leukemia = test system: SR leukemia
SN12C renal = test system: SN12C renal
SF-268 CNS = test system: SF-268 CNS
SK-MEL-28 melanoma = test system: SK-MEL-28 melanoma
SK-MEL-5 melanoma = test system: SK-MEL-5 melanoma
IGROV1 ovarian = test system: IGROV1 ovarian
EKVX NSCLC = test system: EKVX NSCLC
HOP-62 NSCLC = test system: HOP-62 NSCLC
CAKI-1 renal = test system: CAKI-1 renal
HCT-116 colon = test system: HCT-116 colon
RPMI-8226 leukemia = test system: RPMI-8226 leukemia
TK-10 renal = test system: TK-10 renal
HCC-2998 colon = test system: HCC-2998 colon
OVCAR-3 ovarian = test system: OVCAR-3 ovarian
SF-295 CNS = test system: SF-295 CNS
BT-549 breast = test system: BT-549 breast
NCI-H226 lung = test system: NCI-H226 lung
MDA-MB-231 breast = test system: MDA-MB-231 breast
NCI/ADR-RES ovarian = test system: NCI/ADR-RES ovarian
K-562 leukemia = test system: K-562 leukemia
HOP-92 NSCLC = test system: HOP-92 NSCLC
MALME-3M melanoma = test system: MALME-3M melanoma
786-0 renal = test system: 786-0 renal
HT29 colon = test system: HT29 colon

`Nc1nc(-c2cccc([N+](=O)[O-])c2)c(N=Nc2cccc([N+](=O)[O-])c2)s1` was tested, and the GI50 (SK-MEL-2 melanoma) was > 92.8 µM, the TGI (SK-MEL-2 melanoma) was > 100 µM and the GI50 (OVCAR-8 ovarian) was > 100 µM. The TGI (OVCAR-8 ovarian) was > 100 µM, the GI50 (UACC-62 melanoma) was > 100 µM and the TGI (UACC-62 melanoma) was > 100 µM. The GI50 (HL-60(TB) leukemia) was > 52.6 µM, the TGI (HL-60(TB) leukemia) was > 92.8 µM and the GI50 (HS 578T breast) was > 100 µM. The TGI (HS 578T breast) was > 100 µM, the GI50 (CCRF-CEM leukemia) was 39.7 µM and the TGI (CCRF-CEM leukemia) was > 100 µM. The GI50 (UO-31 renal) was > 100 µM, the TGI (UO-31 renal) was > 100 µM and the GI50 (NCI-H23 lung) was > 100 µM. The TGI (NCI-H23 lung) was > 100 µM, the GI50 (PC-3 prostate) was > 27.2 µM and the TGI (PC-3 prostate) was > 100 µM. The GI50 (A498 renal) was 33.1 µM, the TGI (A498 renal) was > 100 µM and the GI50 (HCT-15 colon) was > 100 µM. The TGI (HCT-15 colon) was > 100 µM, the GI50 (U251 CNS) was 4.29 µM and the TGI (U251 CNS) was > 100 µM. For the same compound, the GI50 (DU-145 prostate) was > 100 µM, the TGI (DU-145 prostate) was > 100 µM and the GI50 (SF-539 CNS) was > 100 µM. The TGI (SF-539 CNS) was > 100 µM, the GI50 (MOLT-4 leukemia) was > 25.3 µM and the TGI (MOLT-4 leukemia) was > 100 µM. The GI50 (M14 melanoma) was > 100 µM, the TGI (M14 melanoma) was > 100 µM and the GI50 (RXF 393 renal) was > 100 µM. The TGI (RXF 393 renal) was > 100 µM, the GI50 (T-47D breast) was > 100 µM and the TGI (T-47D breast) was > 100 µM. The GI50 (SW-620 colon) was > 100 µM, the TGI (SW-620 colon) was > 100 µM and the GI50 (UACC-257 melanoma) was > 100 µM. The TGI (UACC-257 melanoma) was > 100 µM, the GI50 (MDA-MB-435) was > 100 µM and the TGI (MDA-MB-435) was > 100 µM. For the same compound, the GI50 (SNB-75 CNS) was 53 µM, the TGI (SNB-75 CNS) was > 100 µM and the GI50 (ACHN renal) was > 100 µM. For the same compound, the TGI (ACHN renal) was > 100 µM, the GI50 (SNB-19 CNS) was 57.9 µM and the TGI (SNB-19 CNS) was > 100 µM. The GI50 (OVCAR-5 ovarian) was > 100 µM, the TGI (OVCAR-5 ovarian) was > 100 µM and the GI50 (COLO 205 colon) was > 100 µM. For the same compound, the TGI (COLO 205 colon) was > 100 µM, the GI50 (LOX IMVI melanoma) was > 100 µM and the TGI (LOX IMVI melanoma) was > 100 µM. For the same compound, the GI50 (SK-OV-3 ovarian) was > 100 µM, the TGI (SK-OV-3 ovarian) was > 100 µM and the GI50 (SR leukemia) was 19.2 µM. For the same compound, the TGI (SR leukemia) was > 57.3 µM, the GI50 (SN12C renal) was > 100 µM and the TGI (SN12C renal) was > 100 µM. For the same compound, the GI50 (SF-268 CNS) was > 100 µM, the TGI (SF-268 CNS) was > 100 µM and the GI50 (SK-MEL-28 melanoma) was > 100 µM. The TGI (SK-MEL-28 melanoma) was > 100 µM, the GI50 (SK-MEL-5 melanoma) was 56.9 µM and the TGI (SK-MEL-5 melanoma) was > 100 µM. For the same compound, the GI50 (IGROV1 ovarian) was > 100 µM, the TGI (IGROV1 ovarian) was > 100 µM and the GI50 (EKVX NSCLC) was > 78.5 µM. For the same compound, the TGI (EKVX NSCLC) was > 100 µM, the GI50 (HOP-62 NSCLC) was 64.9 µM and the TGI (HOP-62 NSCLC) was > 100 µM. The GI50 (CAKI-1 renal) was > 100 µM, the TGI (CAKI-1 renal) was > 100 µM and the GI50 (HCT-116 colon) was > 100 µM. The TGI (HCT-116 colon) was > 100 µM, the GI50 (RPMI-8226 leukemia) was > 100 µM and the TGI (RPMI-8226 leukemia) was > 100 µM. The GI50 (TK-10 renal) was 46.5 µM, the TGI (TK-10 renal) was > 100 µM and the GI50 (HCC-2998 colon) was > 100 µM. For the same compound, the TGI (HCC-2998 colon) was > 100 µM, the GI50 (OVCAR-3 ovarian) was > 100 µM and the TGI (OVCAR-3 ovarian) was > 100 µM. The GI50 (SF-295 CNS) was > 100 µM, the TGI (SF-295 CNS) was > 100 µM and the GI50 (BT-549 breast) was 10.4 µM. For the same compound, the TGI (BT-549 breast) was > 100 µM, the GI50 (NCI-H226 lung) was > 100 µM and the TGI (NCI-H226 lung) was > 100 µM. For the same compound, the GI50 (MDA-MB-231 breast) was 13.6 µM, the TGI (MDA-MB-231 breast) was > 100 µM and the GI50 (NCI/ADR-RES ovarian) was > 100 µM. For the same compound, the TGI (NCI/ADR-RES ovarian) was > 100 µM, the GI50 (K-562 leukemia) was 1.39 µM and the TGI (K-562 leukemia) was > 65 µM. The GI50 (HOP-92 NSCLC) was 3.79 µM, the TGI (HOP-92 NSCLC) was > 100 µM and the GI50 (MALME-3M melanoma) was > 100 µM. For the same compound, the TGI (MALME-3M melanoma) was > 100 µM, the GI50 (786-0 renal) was 63 µM and the TGI (786-0 renal) was > 100 µM. The GI50 (HT29 colon) was > 100 µM and the TGI (HT29 colon) was > 100 µM.
